Source: US9278068B2, “Vesicle compositions” (Sensulin LLC, priority 2011, dated 2016)
Where two headings read alike, the source gives them in different places.

Tests used:
HeLa cells [1] = test: MTT assay for cytotoxicity; settings: 2 h
Protocol: (§1) The cytotoxicity of the boronic acid derivatives from Table 1 was studied by MTT assay. 150,000 HeLa cells were plated in 96 well plates on the night before the experiments. On the day of experiments, the cells were treated with the boronic acid derivatives at three different concentrations (40 nM, 80 nM, and 160 nM) for 2 h. At the end of the incubation, MTT assays (In-Vitro toxicology MTT based assay kit, Sigma Aldrich, MO) were performed according to the manufacturer's protocol.

[2] = Binding assay: competition with ConA-FITC on glucose-terminated magnetic beads; settings: relative to ConA; 2.4 μM ConA-FITC, boronic acid 2.5 μM to 20 μM, PBS pH 7.2
Protocol: The binding affinity of boronic acid derivatives to glucose was determined by competition assay using ConcanavalinA (ConA) as the competitive standard, and varying concentrations of the boronic acid derivatives. Carboxy-terminated magnetic beads were activated by suspending the beads in 100 mM 2-(N-morpholino)ethanesulfonic acid (MES) buffer (pH 4.5). Glucosamine (100 mg/mL) was conjugated to the activated magnetic beads using carbodiimide coupling with 1-ethyl-3-(3-dimethylaminopropyl)carbodiimide (EDC) as a crosslinker. The conjugation reaction was carried out in a 96 well plate. The reaction was run for 24 h. The beads were separated by placing the microplate on a magnetic separator and were washed thoroughly with PBS at pH 7.2 to remove unbound glucose, excess EDC, and N-hydroxysulfosuccinimide (Sulfo-NHS).
The glucose terminated beads were co-incubated for 1 h with 2.4 μM ConA (a known binder of carbohydrates) fluorescently tagged with fluorescein isothiocyanate (ConA-FITC), and titrated with concentrations ranging from 2.5 μM to 20 μM of each boronic acid derivative tested. The following controls were used: (A) carboxy-terminated magnetic beads (not conjugated to glucose) were treated with ConA-FITC to determine non-specific binding; and (B) glucose conjugated beads were treated with a high concentration of non-fluorescent ConA to determine maximal binding.
The wells were washed three times with PBS at pH 7.2 to remove unbound boronic acid derivatives and FITC-ConA. The beads were re-suspended in PBS and stirred for 15 min at rt before measuring FITC fluorescence (excitation: 495 nm, top emission: 520 nm; 6 flashes per well; average of n=3 wells in a Flexstation 11^384 microplate reader to quantify the amount of glucose bound to the boronic acids). The fluorescence intensity was measured and used as an indication of the amount of ConA bound to the surface of the beads, or [ConAs]. The ConA-sugar interaction was expected to be inhibited by the boronic acid derivatives, which can bind the sugar molecules and displace the bound ConA-FITC, thereby causing a decrease in fluorescence intensity of the mixture.
The binding constant of the boronic acid derivatives was calculated from the fluorescence intensity. The reduction of fluorescence intensity is related to [ConAs] by Equation 2.
[formula] The relationship between [ConAs] and the amount of boronic acid [BA] is given by Equation 3.
[formula] Simple rearrangement yields Equation 4, from which the ratio of the two equilibrium constants (KConA/KBA) can be derived.
[formula] • The concentration of sugar sites (S1) can be calculated from the intercept of a plot of 1/[ConAs] vs 1/[BA].

NF-κB [3] = test: NF-κB assay for inflammation (nuclear translocation of NF-κB, immunocytochemistry, PCC); settings: HeLa cells, 2 h, PCC between nuclear and cytoplasmic fraction of NF-κB
Protocol: (§2) 15,000 HeLa cells were plated in 96 well plates the night before the experiments. On the day of the experiments, the cells were treated with the boronic acids (Table 1, below) at three different concentrations (40 nM, 80 nM, and 160 nM) for 2 h. At the end of the incubation, cells were washed with phosphate buffered saline (PBS) and were fixed in 4% paraformaldehyde for 15 min and permeablized with 0.01% Triton X-100 in PBS for 10 min. The cells were washed with PBS three times. Nonspecific sites were blocked with 5% bovine serum albumin (BSA) in PBS and incubated with the Anti-NF-κB for 1 h, followed by incubation with fluorescein isothiocyanate (FITC)-labeled secondary antibody. After washing the cells at the end of the incubation, the cells were treated with 4′,6-diamidino-2-phenylindole (DAPI) for 1 min and kept at 4° C. until further analysis. Images of the cells were acquired with a Beckman-Coulter 100 automated high-throughput microscope system and analyzed using Cytseer software (Vala Sciences, CA). The co-localization of NF-κB was quantified by measuring the PCC between the nuclear and cytoplasmic fraction of the NF-κB molecule. The PCC is a measure of the overlap between the pixel intensities of the nuclear and NF-κB images of the same cell. The PCC values can range from −1 to 1. […] A negative correlation (negative PCC value) indicates an absence of nuclear translocation.

NF-κB [4] = settings: human
Protocol: as §2

HeLa cells [5] = settings: human
Protocol: as §1

Structure (SMILES) | Sugar Binding Affinity Log(KaBA/KaConA) [2] | Inflammation (PCC) 40 nM (NF-κB [3]) | Inflammation (PCC) 80 nM (NF-κB [3]) | Inflammation (PCC) 160 nM (NF-κB [3]) | MTT (% Cell Survival) 40 nM (HeLa cells [1]) | MTT (% Cell Survival) 80 nM (HeLa cells [1]) | MTT (% Cell Survival) 160 nM (HeLa cells [1]) | Inflammation (PCC) 40 nM (NF-κB [4]) | Inflammation (PCC) 80 nM (NF-κB [4]) | Inflammation (PCC) 160 nM (NF-κB [4]) | MTT (% Cell Survival) 40 nM (HeLa cells [5]) | MTT (% Cell Survival) 80 nM (HeLa cells [5]) | MTT (% Cell Survival) 160 nM (HeLa cells [5])
O=C(Cl)c1ccc(B2OB(c3ccc(C(=O)Cl)cc3)OB(c3ccc(C(=O)Cl)cc3)O2)cc1 [4-chlorocarbonylphenylboronic anhydride] | −2.08 | −0.0664 | −0.0012 | 0.09826 | 114.54% | 107.21% | 79.46% | – | – | – | – | – | –
OB(O)c1ccc(Cl)cc1 [4-chlorophenylboronic acid] | – | – | – | – | – | – | – | −0.1494 | 0.01664 | 0 | 51.23% | 81.65% | 56.97%
OB(O)c1ccc(O)cc1 [4-hydroxyphenylboronic acid] | −1.08 | −0.0665 | −0.1081 | 0.2007 | 203.926% | 198.184% | 172.8% | – | – | – | – | – | –
O=Cc1cc(B(O)O)cs1 [5-formylthiophene-3-boronic acid] | −1.24 | −0.0359 | 0.00225 | 0.193 | 86.87% | 87.03% | 73.80% | – | – | – | – | – | –

Continued, in another order:

Sugar Binding Affinity Log(KaBA/KaConA) [2] | Inflammation (PCC) 40 nM (NF-κB [3]) | Inflammation (PCC) 80 nM (NF-κB [3]) | Inflammation (PCC) 160 nM (NF-κB [3]) | Structure (SMILES) | MTT (% Cell Survival) 40 nM (HeLa cells [1]) | MTT (% Cell Survival) 80 nM (HeLa cells [1]) | MTT (% Cell Survival) 160 nM (HeLa cells [1]) | Inflammation (PCC) 40 nM (NF-κB [4]) | Inflammation (PCC) 80 nM (NF-κB [4]) | Inflammation (PCC) 160 nM (NF-κB [4]) | MTT (% Cell Survival) 40 nM (HeLa cells [5]) | MTT (% Cell Survival) 80 nM (HeLa cells [5]) | MTT (% Cell Survival) 160 nM (HeLa cells [5])
−0.009 | −0.1402 | −0.0786 | 0.1922 | CCCc1ccc(B(O)O)cc1 [4-propylphenylboronic acid] | 202.674% | 202.92% | 164.2% | – | – | – | – | – | –
−2.3 | −0.0211 | −0.0701 | 0.1187 | OB(O)c1ccc(-c2ccccc2)s1 [5-phenyl-2-thienylboronic acid] | 100.56% | 81.24% | 86.23% | – | – | – | – | – | –
